Data from patent US12052991B2, “Substituted pyridinyloxybenzenes and salts thereof and use thereof as herbicidal agents” (Bayer Aktiengesellschaft, priority 2018, dated 2024).

Experiments:
Format in all cases: in vivo
[1] = system: Echinochloa crus-galli (ECHCG); assay: Herbicidal post-emergence action (Table B1); details: rated visually after about 3 weeks, 100% = plants have died, 0% = like control plants
Procedure, shortened: (§1)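 Post-emergence spray, one-leaf stage (2–3 wk after sowing), sandy loam, greenhouse. WP/EC in water + 0.5% additive, 600 L/ha, 1280 or 320 g/ha. Visual % activity vs untreated after ~3 wk (0% = like control, 100% = plants dead).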

Lolium rigidum (LOLRI) [2] = assay: Herbicidal post-emergence action (Table B2); details: rated visually after about 3 weeks, 100% = plants have died, 0% = like control plants
Procedure, shortened: as §1

Poa annua (POAAN) [3] = assay: Herbicidal post-emergence action (Table B3); details: rated visually after about 3 weeks, 100% = plants have died, 0% = like control plants
Procedure, shortened: as §1

Setaria viridis (SETVI) [4] = assay: Herbicidal post-emergence action (Table B4); details: rated visually after about 3 weeks, 100% = plants have died, 0% = like control plants
Procedure, shortened: as §1

[5] = system: Abutilon theophrasti (ABUTH); assay: Herbicidal post-emergence action (Table B5); details: rated visually after about 3 weeks, 100% = plants have died, 0% = like control plants
Procedure, shortened: as §1

[6] = system: Amaranthus retroflexus (AMARE); assay: Herbicidal post-emergence action (Table B6); details: visual rating about 3 weeks after treatment, 100% = plants have died, 0% = like control plants
Procedure, shortened: as §1

Stellaria media (STEME) [7] = assay: Herbicidal post-emergence action (Table B8); details: visual rating about 3 weeks after treatment, 100% = plants have died, 0% = like control plants
Procedure, shortened: as §1

[8] = system: Echinochloa crus-galli (ECHCG); assay: Herbicidal pre-emergence action, test C (Table C1); details: visual scoring after about 3 weeks, 100% = plants have died, 0% = like control plants
Procedure, shortened: (§2)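 Visual scoring after about 3 weeks in the greenhouse gave % activity relative to untreated controls, 100% meaning plants died. Compounds, as WP or EC with 0.5% additive, had been applied to covering soil at 1280 or 320 g/ha in 600 L/ha water.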

Lolium rigidum (LOLRI) [9] = assay: Herbicidal pre-emergence action, test C (Table C2); details: visual scoring after about 3 weeks, 100% = plants have died, 0% = like control plants
Procedure, shortened: as §2

Poa annua (POAAN) [10] = assay: Herbicidal pre-emergence action, test C (Table C3); details: visual scoring after about 3 weeks, 100% = plants have died, 0% = like control plants
Procedure, shortened: as §2

Setaria viridis (SETVI) [11] = assay: Herbicidal pre-emergence action, test C (Table C4); details: visual scoring after about 3 weeks, 100% = plants have died, 0% = like control plants
Procedure, shortened: as §2

[12] = system: Abutilon theophrasti (ABUTH); assay: Herbicidal pre-emergence action, test C (Table C5); details: visual scoring after about 3 weeks, 100% = plants have died, 0% = like control plants
Procedure, shortened: as §2

[13] = system: Amaranthus retroflexus (AMARE); assay: Herbicidal pre-emergence action, test C (Table C6); details: visual scoring after about 3 weeks, 100% = plants have died, 0% = like control plants
Procedure, shortened: as §2

Stellaria media (STEME) [14] = assay: Herbicidal pre-emergence action, test C (Table C8); details: visual scoring after about 3 weeks, 100% = plants have died, 0% = like control plants
Procedure, shortened: as §2

[15] = system: harmful plants ABUTH, AMARE, ECHCG, LOLRI, MATIN, POAAN, SETVI, STEME, ALOMY, DIGSA, KCHSC and VERPE; assay: Herbicidal post-emergence action, summary of Tables B1-B12; details: application rate of 1280 or 320 g of active ingredient per hectare; summary in words
Procedure, shortened: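 Activity scored by eye roughly 3 weeks post-treatment against untreated plants, from 0% (no effect) to 100% (plants dead). Application rates were 1280 or 320 g/ha, as aqueous WP/EC spray plus 0.5% additive at 600 L/ha, onto one-leaf-stage weeds grown 2–3 weeks in sandy loam.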

[16] = system: harmful plants ABUTH, AMARE, ECHCG, LOLRI, MATIN, POAAN, SETVI, STEME, ALOMY, DIGSA, KCHSC and VERPE; assay: Herbicidal pre-emergence action (test C), summary of Tables C1-C12; details: application rate of 1280 or 320 g of active ingredient per hectare; summary in words
Procedure, shortened: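 Visual % damage versus untreated plants (0% = like control, 100% = died) was scored after about 3 weeks in the greenhouse. Before emergence, seeds sown in sandy loam got a soil-surface spray of compound as WP or EC plus 0.5% additive, using 600 L/ha water at rates of 1280 or 320 g/ha.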

Row | Structure (SMILES) | Post-emergence action against Echinochloa crus-galli (ECHCG) ([1]; 320 g/ha) | Post-emergence action against Echinochloa crus-galli (ECHCG) ([1]; 1280 g/ha) | Post-emergence action against Lolium rigidum (LOLRI) (Lolium rigidum (LOLRI) [2]; 320 g/ha) | Post-emergence action against Lolium rigidum (LOLRI) (Lolium rigidum (LOLRI) [2]; 1280 g/ha) | Post-emergence action against Poa annua (POAAN) (Poa annua (POAAN) [3]; 320 g/ha) | Post-emergence action against Poa annua (POAAN) (Poa annua (POAAN) [3]; 1280 g/ha) | Post-emergence action against Abutilon theophrasti (ABUTH) ([5]; 320 g/ha) | Post-emergence action against Abutilon theophrasti (ABUTH) ([5]; 1280 g/ha) | Post-emergence action against Amaranthus retroflexus (AMARE) ([6]; dosage 320 g/ha) | Post-emergence action against Amaranthus retroflexus (AMARE) ([6]; dosage 1280 g/ha) | Post-emergence action against Stellaria media (STEME) (Stellaria media (STEME) [7]; dosage 320 g/ha) | Post-emergence action against Stellaria media (STEME) (Stellaria media (STEME) [7]; dosage 1280 g/ha) | Pre-emergence action against Echinochloa crus-galli (ECHCG) ([8]; dosage 320 g/ha) | Pre-emergence action against Echinochloa crus-galli (ECHCG) ([8]; dosage 1280 g/ha) | Pre-emergence action against Lolium rigidum (LOLRI) (Lolium rigidum (LOLRI) [9]; dosage 1280 g/ha) | Pre-emergence action against Poa annua (POAAN) (Poa annua (POAAN) [10]; dosage 320 g/ha) | Pre-emergence action against Poa annua (POAAN) (Poa annua (POAAN) [10]; dosage 1280 g/ha) | Pre-emergence action against Setaria viridis (SETVI) (Setaria viridis (SETVI) [11]; dosage 320 g/ha) | Pre-emergence action against Setaria viridis (SETVI) (Setaria viridis (SETVI) [11]; dosage 1280 g/ha) | Pre-emergence action against Abutilon theophrasti (ABUTH) ([12]; dosage 320 g/ha) | also measured
1 | Fc1cccc(Oc2ccc(Cl)cn2)c1-c1cc(C(F)F)no1 [Example 1-17] | 100% | 100% | 100% | 100% | 100% | 100% | 100% | 100% | 100% | 100% | 100% | 100% | 90% | 100% | 100% | 100% | 100% | 100% | 100% | 100% | Post-emergence action against Setaria viridis (SETVI) (Setaria viridis (SETVI) [4]; 320 g/ha): 100%; Post-emergence action against Setaria viridis (SETVI) (Setaria viridis (SETVI) [4]; 1280 g/ha): 100%; Pre-emergence action against Lolium rigidum (LOLRI) (Lolium rigidum (LOLRI) [9]; dosage 320 g/ha): 100%; Pre-emergence action against Abutilon theophrasti (ABUTH) ([12]; dosage 1280 g/ha): 100%; Pre-emergence action against Amaranthus retroflexus (AMARE) ([13]; dosage 320 g/ha): 100%; Pre-emergence action against Amaranthus retroflexus (AMARE) ([13]; dosage 1280 g/ha): 100%; Pre-emergence action against Stellaria media (STEME) (Stellaria media (STEME) [14]; dosage 320 g/ha): 100%; Pre-emergence action against Stellaria media (STEME) (Stellaria media (STEME) [14]; dosage 1280 g/ha): 100%; herbicidal activity against the harmful plants of Tables B1-B12 in post-emergence treatment [15]: very good herbicidal activity; herbicidal activity against the harmful plants of Tables C1-C12 in pre-emergence treatment [16]: very good herbicidal activity
2 | Cc1cccc(Oc2ncc(Cl)cc2F)c1-c1cc(C(F)F)no1 [Example 1-20] | 100% | 100% | 90% | 90% | 100% | 100% | 100% | 100% | 100% | 100% | 100% | 100% | 90% | 90% | 90% | 90% | 90% | 100% | 100% | 90% | Pre-emergence action against Abutilon theophrasti (ABUTH) ([12]; dosage 1280 g/ha): 100%; Pre-emergence action against Amaranthus retroflexus (AMARE) ([13]; dosage 320 g/ha): 100%; Pre-emergence action against Amaranthus retroflexus (AMARE) ([13]; dosage 1280 g/ha): 100%; Pre-emergence action against Stellaria media (STEME) (Stellaria media (STEME) [14]; dosage 320 g/ha): 100%; Pre-emergence action against Stellaria media (STEME) (Stellaria media (STEME) [14]; dosage 1280 g/ha): 100%; herbicidal activity against the harmful plants of Tables B1-B12 in post-emergence treatment [15]: very good herbicidal activity; herbicidal activity against the harmful plants of Tables C1-C12 in pre-emergence treatment [16]: very good herbicidal activity
